This note sets out measurements from ChEMBL document CHEMBL1150917, “Chemical constituents from Cassytha filiformis II” (1998).

Molecules are shown by their SMILES. Active and inactive are the calls of the source. No cut-off for these calls is given here.

Assay [1] deals with Platelet. The experiment in a line: Inhibition of collagen-induced platelet aggregation in rabbit platelet at 100 uM relative to control. Format: functional, Oryctolagus cuniculus. Further details: scale not given: the % may be the effect or the level left.
Assay [2] concerns Platelet. As to the kind of experiment: Inhibition of PAF-induced platelet aggregation in rabbit platelet at 100 uM relative to control. Format: functional, Oryctolagus cuniculus. Set-up: scale not given: the % may be the effect or the level left.
Assay [3] has as its system Platelet. As to the kind of experiment: Inhibition of arachidonic acid-induced platelet aggregation in rabbit platelet at 100 uM relative to control. Format: functional, Oryctolagus cuniculus. Set-up: scale not given: the % may be the effect or the level left.
The test system of assay [4] is Platelet. The experiment in a line: Inhibition of collagen-induced platelet aggregation in rabbit platelet at 50 uM relative to control. It counts as functional, cell-based. Conditions: Oryctolagus cuniculus.
The test system of assay [5] is Platelet. The experiment in a line: Inhibition of PAF-induced platelet aggregation in rabbit platelet at 50 uM relative to control. Particulars: Oryctolagus cuniculus. Format: functional, cell-based.
Assay [6] deals with Platelet. The experiment in a line: Inhibition of ADP-induced platelet aggregation in rabbit platelet at 50 uM relative to control. Format: functional, cell-based. Conditions: Oryctolagus cuniculus.
For assay [7], the system named is Platelet. As to the kind of experiment: Inhibition of arachidonic acid-induced platelet aggregation in rabbit platelet at 50 uM relative to control. Format: functional, cell-based. Conditions: Oryctolagus cuniculus.
Assay [8] relates to Platelet. As to the kind of experiment: Inhibition of arachidonic acid-induced platelet aggregation in rabbit platelet at 20 uM relative to control. Conditions: Oryctolagus cuniculus. It counts as functional, cell-based.
Assay [9] concerns Platelet. The experiment in a line: Inhibition of ADP-induced platelet aggregation in rabbit platelet at 100 uM relative to control. Set-up: scale not given: the % may be the effect or the level left. Format: functional, Oryctolagus cuniculus.
The test system of assay [10] is Platelet. The experiment in a line: Inhibition of ADP-induced platelet aggregation in rabbit platelet at 25 uM relative to control. It counts as functional, Oryctolagus cuniculus. Further details: scale not given: the % may be the effect or the level left.
Assay [11] has as its system Platelet. As to the kind of experiment: Inhibition of arachidonic acid-induced platelet aggregation in rabbit platelet at 25 uM relative to control. It counts as functional, Oryctolagus cuniculus. Set-up: scale not given: the % may be the effect or the level left.
Assay [12] concerns Platelet. The experiment in a line: Inhibition of collagen-induced platelet aggregation in rabbit platelet at 25 uM relative to control. It counts as functional, Oryctolagus cuniculus. Further details: scale not given: the % may be the effect or the level left.
Assay [13] concerns Platelet. As to the kind of experiment: Inhibition of PAF-induced platelet aggregation in rabbit platelet at 25 uM relative to control. Format: functional, Oryctolagus cuniculus. Set-up: scale not given: the % may be the effect or the level left.

In the case of `COc1cc2c(cc1OC)-c1c(OC)c(O)cc3c1[C@H](C2)N(C)CC3` [PREDICENTRINE], the figures for the Activity in the assay with Platelet [1], in the assay on Platelet [2] and with Platelet [3] were 0%, 74% and 0%, respectively.
With `COC(=O)N1CCc2c(OC)c3c(c4c2[C@@H]1Cc1cc(O)c(OC)cc1-4)OCO3` [CATHAFORMINE], the Activity in the assay on Platelet [1] came to 7.6%; in the assay on Platelet [2] it was 61.5%; in the assay with Platelet [3] it was 0%. Also, the result in the assay with Platelet [4], with Platelet [5], with Platelet [6] and with Platelet [7] was Active.
Regarding `COc1cc2c(cc1OC)-c1c3c(c(OC)c4c1[C@H](C2)N(C)CC4)OCO3` [OCOTEINE], the Activity in the assay with Platelet [1] came to 0%; in the assay with Platelet [2], 87.7%; in the assay with Platelet [3], 0%.
In the case of `COc1cc2c(cc1O)C[C@H]1c3c(cc4c(c3-2)OCO4)CCN1C` [CASSYTHICINE], the Activity came out at 0% in the assay on Platelet [1], 68.1% with Platelet [2], 0% in the assay on Platelet [3] and 0% with Platelet [9]. Moreover, the result with Platelet [8] was Active.
For the compound `COc1cc2c(cc1O)C[C@@H]1NCCc3cc4c(c-2c31)OCO4` [ACTINODAPHNINE], the Activity with Platelet [1], in the assay with Platelet [2], in the assay with Platelet [3] and in the assay with Platelet [9] was 0% each time. In addition, the outcome in the assay on Platelet [4], in the assay with Platelet [5], in the assay with Platelet [6] and in the assay with Platelet [7] was Active.
As to `CC(=O)Oc1ccccc1C(=O)O` [ASPIRIN], the Activity worked out at 77.9% in the assay on Platelet [10], 0% in the assay with Platelet [11], 87.8% with Platelet [12] and 90.5% in the assay with Platelet [13].
For the compound `COC(=O)N1CCc2cc3c(c4c2[C@@H]1Cc1cc(O)c(OC)cc1-4)OCO3` [CATHAFILINE], the outcome in the assay with Platelet [4], in the assay on Platelet [5], in the assay with Platelet [6] and in the assay with Platelet [7] was Active. The compound further gave an Activity in the assay with Platelet [3] of 0%.
